#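 Grown in 96-well plates, cells were treated for 48 hours with each compound at five concentrations. Insufficient inhibition: endpoint recorded as highest concentration tested. GI50 is the concentration that inhibits growth by half.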 Activity calls are given as the source filed them. Cut-off read from the data, not from the text of the source: active = GI50 up to about 1.1 µM and inactive = higher.
# Key:
# Assay in all cases: NCI-60 cell line screen, 48 h
# 786-0 = test system: 786-0
# A498 = test system: A498
# A549 = test system: A549
# ACHN = test system: ACHN
# BT-549 = test system: BT-549
# CAKI-1 = test system: CAKI-1
# COLO 205 = test system: COLO 205
# DU-145 = test system: DU-145
# EKVX = test system: EKVX
# HCC 2998 = test system: HCC 2998
# HCT-116 = test system: HCT-116
# HCT-15 = test system: HCT-15
# HOP-62 = test system: HOP-62
# HT-29 = test system: HT-29
# Hs-578T = test system: Hs-578T
# K562 = test system: K562
# KM12 = test system: KM12
# M14 = test system: M14
# MCF7 = test system: MCF7
# MDA-MB-231 = test system: MDA-MB-231
# MDA-MB-435 = test system: MDA-MB-435
# MDA-N = test system: MDA-N
# MOLT-4 = test system: MOLT-4
# NCI-H23 = test system: NCI-H23
# NCI-H460 = test system: NCI-H460
# NCI/ADR-RES = test system: NCI/ADR-RES
# OVCAR-3 = test system: OVCAR-3
# OVCAR-4 = test system: OVCAR-4
# OVCAR-5 = test system: OVCAR-5
# OVCAR-8 = test system: OVCAR-8
# PC-3 = test system: PC-3
# RPMI-8226 = test system: RPMI-8226
# RXF 393 = test system: RXF 393
# SF-268 = test system: SF-268
# SF-295 = test system: SF-295
# SF-539 = test system: SF-539
# SK-MEL-28 = test system: SK-MEL-28
# SK-MEL-5 = test system: SK-MEL-5
# SK-OV-3 = test system: SK-OV-3
# SN12C = test system: SN12C
# SNB-19 = test system: SNB-19
# SNB-75 = test system: SNB-75
# SW-620 = test system: SW-620
# T47D = test system: T47D
# TK-10 = test system: TK-10
# U-251 = test system: U-251
# UACC-257 = test system: UACC-257
# UACC-62 = test system: UACC-62
# UO-31 = test system: UO-31
# CCRF-CEM = test system: CCRF-CEM
# HL-60 = test system: HL-60
# HOP-92 = test system: HOP-92
# IGROV-1 = test system: IGROV-1
# LOX IMVI = test system: LOX IMVI
# SK-MEL-2 = test system: SK-MEL-2
# SR = test system: SR
# Malme-3M = test system: Malme-3M
# NCI-H226 = test system: NCI-H226
# NCI-H522 = test system: NCI-H522
structure (smiles),measurement,setting,value
N#Cc1nc2cc(Cl)ccc2nc1N1CCN(c2ccc([N+](=O)[O-])cc2)CC1,GI50,786-0,> 100 µM (inactive)
same,GI50,A498,> 100 µM (inactive)
same,GI50,A549,> 100 µM (inactive)
same,GI50,ACHN,> 100 µM (inactive)
same,GI50,BT-549,> 100 µM (inactive)
same,GI50,CAKI-1,> 100 µM (inactive)
same,GI50,COLO 205,> 100 µM (inactive)
same,GI50,DU-145,> 100 µM (inactive)
same,GI50,EKVX,> 100 µM (inactive)
same,GI50,HCC 2998,18.9 µM (inactive)
same,GI50,HCT-116,> 100 µM (inactive)
same,GI50,HCT-15,> 100 µM
same,GI50,HOP-62,> 100 µM (inactive)
same,GI50,HT-29,> 100 µM (inactive)
same,GI50,Hs-578T,> 100 µM (inactive)
same,GI50,K562,> 100 µM (inactive)
same,GI50,KM12,> 100 µM (inactive)
same,GI50,M14,> 100 µM (inactive)
same,GI50,MCF7,> 100 µM (inactive)
same,GI50,MDA-MB-231,> 100 µM (inactive)
same,GI50,MDA-MB-435,> 100 µM (inactive)
same,GI50,MDA-N,> 100 µM (inactive)
same,GI50,MOLT-4,> 100 µM (inactive)
same,GI50,NCI-H23,> 100 µM (inactive)
same,GI50,NCI-H460,> 100 µM (inactive)
same,GI50,NCI/ADR-RES,> 100 µM (inactive)
same,GI50,OVCAR-3,> 100 µM (inactive)
same,GI50,OVCAR-4,> 100 µM (inactive)
same,GI50,OVCAR-5,> 100 µM (inactive)
same,GI50,OVCAR-8,> 100 µM (inactive)
same,GI50,PC-3,> 100 µM (inactive)
same,GI50,RPMI-8226,> 100 µM (inactive)
same,GI50,RXF 393,> 100 µM (inactive)
same,GI50,SF-268,> 100 µM (inactive)
same,GI50,SF-295,> 100 µM (inactive)
same,GI50,SF-539,> 100 µM (inactive)
same,GI50,SK-MEL-28,> 100 µM (inactive)
same,GI50,SK-MEL-5,> 100 µM (inactive)
same,GI50,SK-OV-3,> 100 µM (inactive)
same,GI50,SN12C,> 100 µM (inactive)
same,GI50,SNB-19,> 100 µM (inactive)
same,GI50,SNB-75,> 100 µM (inactive)
same,GI50,SW-620,> 100 µM (inactive)
same,GI50,T47D,> 100 µM (inactive)
same,GI50,TK-10,> 100 µM (inactive)
same,GI50,U-251,> 100 µM (inactive)
same,GI50,UACC-257,> 100 µM (inactive)
same,GI50,UACC-62,> 100 µM (inactive)
same,GI50,UO-31,> 100 µM (inactive)
CCCCCCCN1C(=O)C(O)(c2ccc(C3(O)C(=O)N(CCCCCCC)c4ccccc43)s2)c2ccccc21 (centres undefined),GI50,786-0,1.91 µM (inactive)
same,GI50,ACHN,2.26 µM (inactive)
same,GI50,BT-549,2.33 µM (inactive)
same,GI50,CCRF-CEM,3.87 µM (inactive)
same,GI50,COLO 205,1.63 µM (inactive)
same,GI50,DU-145,1.65 µM (inactive)
same,GI50,HCC 2998,1.87 µM (inactive)
same,GI50,HCT-116,1.73 µM (inactive)
same,GI50,HCT-15,2.12 µM
same,GI50,HL-60,1.56 µM (inactive)
same,GI50,HOP-62,1.77 µM (inactive)
same,GI50,HOP-92,1.84 µM (inactive)
same,GI50,HT-29,1.78 µM (inactive)
same,GI50,Hs-578T,2.79 µM (inactive)
same,GI50,IGROV-1,2.35 µM (inactive)
same,GI50,K562,2.99 µM (inactive)
same,GI50,KM12,1.8 µM (inactive)
same,GI50,LOX IMVI,1.96 µM (inactive)
same,GI50,M14,1.79 µM (inactive)
same,GI50,MCF7,2.21 µM (inactive)
same,GI50,MDA-MB-231,2.19 µM (inactive)
same,GI50,MDA-MB-435,2.05 µM (inactive)
same,GI50,MDA-N,1.99 µM (inactive)
same,GI50,MOLT-4,2.03 µM (inactive)
same,GI50,NCI-H460,1.79 µM (inactive)
same,GI50,OVCAR-4,2.01 µM (inactive)
same,GI50,OVCAR-5,1.68 µM (inactive)
same,GI50,OVCAR-8,2.04 µM (inactive)
same,GI50,PC-3,1.97 µM (inactive)
same,GI50,RPMI-8226,2.04 µM (inactive)
same,GI50,SF-268,2.11 µM (inactive)
same,GI50,SF-295,1.85 µM (inactive)
same,GI50,SF-539,1.79 µM (inactive)
same,GI50,SK-MEL-28,2.07 µM (inactive)
same,GI50,SK-MEL-2,1.47 µM (inactive)
same,GI50,SK-MEL-5,1.79 µM (inactive)
same,GI50,SK-OV-3,0.753 µM (active)
same,GI50,SN12C,1.9 µM (inactive)
same,GI50,SNB-19,2.81 µM (inactive)
same,GI50,SNB-75,5.4 µM (inactive)
same,GI50,SR,4.83 µM (inactive)
same,GI50,SW-620,2.18 µM (inactive)
same,GI50,T47D,4.39 µM (inactive)
same,GI50,TK-10,2.25 µM (inactive)
same,GI50,U-251,1.74 µM (inactive)
same,GI50,UACC-257,2.07 µM (inactive)
same,GI50,UACC-62,2.12 µM (inactive)
same,GI50,UO-31,1.57 µM (inactive)
COc1ccc(-c2c(N)n(-c3nc4ccccc4s3)c(=O)c3cc([N+](=O)[O-])ccc23)cc1,GI50,786-0,4.29 µM (inactive)
same,GI50,A498,74 µM (inactive)
same,GI50,A549,11.2 µM (inactive)
same,GI50,ACHN,22 µM (inactive)
same,GI50,BT-549,89.9 µM (inactive)
same,GI50,CAKI-1,21.3 µM (inactive)
same,GI50,CCRF-CEM,4.44 µM (inactive)
same,GI50,EKVX,14 µM (inactive)
same,GI50,HCT-116,20.1 µM (inactive)
same,GI50,HCT-15,41.8 µM
same,GI50,HL-60,99.8 µM (inactive)
same,GI50,HOP-62,14 µM (inactive)
same,GI50,HOP-92,16.4 µM (inactive)
same,GI50,HT-29,49 µM (inactive)
same,GI50,Hs-578T,13.7 µM (inactive)
same,GI50,K562,23.2 µM (inactive)
same,GI50,KM12,18.6 µM (inactive)
same,GI50,LOX IMVI,14.9 µM (inactive)
same,GI50,M14,17.8 µM (inactive)
same,GI50,MCF7,44.8 µM (inactive)
same,GI50,MDA-MB-231,16.9 µM (inactive)
same,GI50,MDA-MB-435,19 µM (inactive)
same,GI50,MDA-N,70.5 µM (inactive)
same,GI50,MOLT-4,3.18 µM (inactive)
same,GI50,Malme-3M,20.7 µM (inactive)
same,GI50,NCI-H226,37.3 µM (inactive)
same,GI50,NCI-H23,13.8 µM (inactive)
same,GI50,NCI-H460,3.69 µM (inactive)
same,GI50,NCI-H522,10.7 µM (inactive)
same,GI50,NCI/ADR-RES,17 µM (inactive)
same,GI50,OVCAR-3,17 µM (inactive)
same,GI50,OVCAR-4,24.1 µM (inactive)
same,GI50,OVCAR-5,22.2 µM (inactive)
same,GI50,OVCAR-8,11.2 µM (inactive)
same,GI50,PC-3,30.8 µM (inactive)
same,GI50,RPMI-8226,1.81 µM (inactive)
same,GI50,RXF 393,14.2 µM (inactive)
same,GI50,SF-268,17.2 µM (inactive)
same,GI50,SF-295,22.3 µM (inactive)
same,GI50,SF-539,5.83 µM (inactive)
same,GI50,SK-MEL-28,> 100 µM (inactive)
same,GI50,SK-MEL-2,25.4 µM (inactive)
same,GI50,SK-OV-3,15.3 µM (inactive)
same,GI50,SNB-19,40.1 µM (inactive)
same,GI50,SNB-75,8.43 µM (inactive)
same,GI50,SR,8.39 µM (inactive)
same,GI50,SW-620,19.7 µM (inactive)
same,GI50,TK-10,38.1 µM (inactive)
same,GI50,U-251,7.6 µM (inactive)
same,GI50,UACC-257,67.8 µM (inactive)
same,GI50,UACC-62,> 100 µM (inactive)
same,GI50,UO-31,16.3 µM (inactive)

# Reference: ChEMBL document CHEMBL1201862, “PubChem BioAssay data set” (2004)
